According to patent publication US5545399A, “Cosmetic composition” (Chesebrough-Pond's USA Co., priority 1993, dated 1996):
Where two headings read alike, the source gives them in different places.

What was measured:
[1] = tested on: Pigment producing cells derived from a mammalian melanoma; assay: In vitro melanocyte cell culture: melanin production (absorbance at 540 nm of melanin released into the medium); assay type: cell-based; settings: for activity at 300 µM: dihydrophloretin 0.3 mM; for activity at 100 µM: dihydrophloretin 0.1 mM; for activity at 230 µM: dihydrophloretin 0.23 mM; for melanin production as percentage of control / % pigmentation: 5760 min
Procedure: Test method--In vitro melanocyte cell culture Pigment producing cells derived from a mammalian melanoma are grown in culture by standard methods. Preferred cell lines are B16 or S-91 cells, but other lines or primary mouse or human melanocytes can be used. Melanoma cells are grown in cell culture medium such as RPMI 1640 (GIBCO) supplemented with fetal calf serum and glutamine to approximately 1/3 confluence. The active is dissolved in culture medium, the pH adjusted as required and sterile filtered. The solution is then added to the cells. The cells are cultured for a further period of 4 days and the amount of melanin produced assayed by measuring the absorbance at 540 nm of the melanin released into the medium. The above procedure was used to assess the ability of compositions of (a) dihydrophloretin alone and (b) dihydrophloretin plus retinol to reduce the amount of melanin produced.

in vitro = assay type: cell-based, mammalian; settings: melanoma cells
Procedure: (§1) Pigment producing cells derived from a mammalian melanoma are grown in culture by standard methods. Preferred cell lines are B16 or S-91 cells, but other lines or primary mouse or human melanocytes can be used.
(§2) Melanoma cells are grown in cell culture medium such as RPMI 1640 (GIBCO) supplemented with fetal calf serum and glutamine to approximately 1/3 confluence. The active is dissolved in culture medium, the pH adjusted as required and sterile filtered. The solution is then added to the cells.
(§3) Cell viability in the presence of the inhibitor is tested using neutral red (3-amino-7-dimethylamino-2-methyl phenazine hydrochloride) a water soluble vital dye which passes through the intact plasma membrane and becomes concentrated in lysosomes of viable cells. For any culture, the amount of dye taken up is proportional to the number of viable cells and agents that damage cell and lysosomal membranes inhibit dye incorporation.
(§4) The cells are incubated in 50 μg/ml neutral red solution for 3 hours at 37° C. in 5% CO2 in air. The solution is aspirated, the cells washed once in saline and to them added a solvent (50% H2 O, 49% ethanol, 1% acetic acid) to solubilise the dye. The amount of neutral red dye is quantified by measuring absorbance at 540 nm.
(§5) The above procedure was used to assess the ability of compositions of (a) dihydrophloretin alone and (b) dihydrophloretin plus retinol to reduce the amount of melanin produced.
(§6) The results for melanin production were calculated as percentages of control which contained medium alone. There was no effect on viability at the concentrations of actives reported.

Melanoma cells = assay: in vitro; assay type: cell-based, mammalian
Procedure: as §1, §2, §3, §4, §5, §6

[2] = Melanocyte, 96 h, Table 4, trans retinol 0, read-out: melanin production as percentage of control
[3] = Melanocyte, 96 h, Table 5, retinol 0, n 3, read-out: % pigmentation

## Oc1ccc(CCC(O)c2c(O)cc(O)cc2O)cc1 (stereo not shown) [Dihydrophloretin, dihydrophloretin]
[1]; Melanocyte, 96 h, Table 3, dihydrophloretin 0.01 mM, 4 days, read-out: % of control melanin production
  activity at 10 µM: 100%
[1]; Melanocyte, 96 h, Table 3, dihydrophloretin 0.03 mM, 4 days, read-out: % of control melanin production
  activity at 30 µM: 99.8%
[1]; Melanocyte, 96 h, Table 3, 4 days, read-out: % of control melanin production
  activity at 300 µM: 57%
[1]; [2]
  activity at 100 µM: 98.1%
  activity at 230 µM: 109%
  activity at 300 µM: 109%
[1]; Melanocyte, 96 h, Table 4, dihydrophloretin 0.17 mM, trans retinol 0, read-out: melanin production as percentage of control
  activity at 170 µM: 109%
[1]; [3]
  activity at 100 µM: 99%
  activity at 230 µM: 104%
[1]; Melanocyte, 96 h, Table 5, retinol 0, n 4, read-out: % pigmentation
  activity at 300 µM: 94%
[1]; Table 4, dihydrophloretin 0.1 mM plus trans retinol 2.0 μm
  melanin production as percentage of control: 120.2 % of control
[1]; Table 4, dihydrophloretin 0.1 mM plus trans retinol 6.7 μm, *significantly less (P<0.05) than Control
  melanin production as percentage of control: 82.1 % of control
[1]; Table 4, dihydrophloretin 0.17 mM plus trans retinol 2.0 μm
  melanin production as percentage of control: 111.0 % of control
[1]; Table 4, dihydrophloretin 0.17 mM plus trans retinol 6.7 μm, *significantly less (P<0.05) than Control
  melanin production as percentage of control: 76.0 % of control
[1]; Table 4, dihydrophloretin 0.23 mM plus trans retinol 2.0 μm
  melanin production as percentage of control: 110.0 % of control
[1]; Table 4, dihydrophloretin 0.23 mM plus trans retinol 6.7 μm, *significantly less (P<0.05) than Control
  melanin production as percentage of control: 60.9 % of control
[1]; Table 4, dihydrophloretin 0.3 mM plus trans retinol 2.0 μm
  melanin production as percentage of control: 104.0 % of control
[1]; Table 4, dihydrophloretin 0.3 mM plus trans retinol 6.7 μm, *significantly less (P<0.05) than Control
  melanin production as percentage of control: 34.0 % of control
[1]; Table 5, dihydrophloretin 0.1 mM plus retinol 2.0 μM, n 1
  % pigmentation: 120%
[1]; Table 5, dihydrophloretin 0.1 mM plus retinol 6.7 μM, n 2
  % pigmentation: 86%
[1]; Table 5, dihydrophloretin 0.17 mM plus retinol 2.0 μM, n 1
  % pigmentation: 111%
[1]; Table 5, dihydrophloretin 0.17 mM plus retinol 6.7 μM, n 2
  % pigmentation: 73%
[1]; Table 5, dihydrophloretin 0.23 mM plus retinol 2.0 μM, n 1
  % pigmentation: 110%
[1]; Table 5, dihydrophloretin 0.23 mM plus retinol 6.7 μM, n 2
  % pigmentation: 55%
[1]; Table 5, dihydrophloretin 0.3 mM plus retinol 6.7 μM, n 1
  % pigmentation: 34%
In vitro
  viability at 100 µM: 100%
  viability at 170 µM: 100%
  viability at 230 µM: 100%
  viability at 300 µM: 100%
Melanoma cells
  cell viability: No adverse effects

## CC1=C(/C=C/C(C)=C/C=C/C(C)=C/CO)C(C)(C)CCC1 [Trans Retinol, retinol, reference compound]
[1]; Melanocyte, 96 h, Table 4, trans retinol 2.0 μm, dihydrophloretin 0, read-out: melanin production as percentage of control
  activity at 2 µM: 121%
[1]; Melanocyte, 96 h, Table 4, trans retinol 6.7 μm, dihydrophloretin 0, read-out: melanin production as percentage of control
  activity at 6.7 µM: 92.9%
[1]; Melanocyte, 96 h, Table 5, retinol 2.0 μM, dihydrophloretin 0.0, n 1, read-out: % pigmentation
  activity at 2 µM: 120%
[1]; Melanocyte, 96 h, Table 5, retinol 6.7 μM, dihydrophloretin 0.0, n 2, read-out: % pigmentation
  activity at 6.7 µM: 97%
In vitro
  viability at 2 µM: 100%
  viability at 6.7 µM: 100%
Melanoma cells
  cell viability: No adverse effects
